These results are taken from patent publication US20210260066A1, “METHOD OF USING MEK INHIBITOR TO PREVENT RADIATION INDUCED FIBROSIS” (THOMAS JEFFERSON UNIVERSITY, priority 2018, published 2021).

Bounds are passed on as bounds.

Data set [1] concerns rat peritoneal mesothelial cells. Briefly: TGF-β induced mesothelial-mesenchymal transition (MMT) of rat peritoneal mesothelial cells. In kind it is cell-based. Here is the method: Isolated mesothelial cells were incubated under control conditions without either TGF-β or trametinib, with TGF-β or trametinib alone, or with both TGF-β and trametinib for five days.
These increases in gene expression of phosphor-Erk1/2, FNEDA, αSMA and p-SMAD2 (linker) were blocked by as low a concentration of trametinib as 2 nM.
The experiments in this study were approved by the Institutional Animal Care and Use Committee at Thomas Jefferson University, and were performed in accordance with the National Institutes of Health guidelines for the care and handling of laboratory animals. […]
RPMCs were lysed in ice-cold modified RIPA buffer with protease inhibitor cocktail (50 mM/L Tris-HCl, 1% NP-40, 0.25% Na-deoxycholate, 150 mM/L NaCl, 1 mM/L EDTA, 1 mmol/L phenylmethyl sulfonyl fluoride, 1 mM/L sodium orthovanadate, 1 mM/L NaF, pH 7.4). Equivalent amounts of homogenate (50 μg/well), determined by Coomassie blue assay, were separated by sodium dodecyl sulfate polyacrylamide gel electrophoresis (SDS-PAGE), transferred to either nitrocellulose or PVDF membranes, and detected by SuperSignal West Femto or Pico chemiluminescence.

In a further data set the test system is C57BL/6 mice. As to conditions: mouse, in vivo. The text has this: C57BL/6 mice were used to develop a consistent model of intra-abdominal adhesion formation. Mouse cecums were gently abraded to promote adhesion formation which were subsequently analyzed histologically and immunochemically to characterize the expression of pro-fibrotic genes including (αSMA and FNEDA isoform, both of which were examined immunohistochemically and by quantitative polymerase chain reaction (qPCR). Trichrome staining was used to assess collagen deposition, a major protein component found in the extracellular matrix (ECM) at adhesion sites. Consistent intra-abdominal adhesions in mice were achieved by gentle cecal abrasion with mortality rates of <10%. Adhesions were seen as early as post-operative day 1 with extensive adhesions being formed and vascularized by day 5. Expression of the FNEDA isoform first and subsequently αSMA and collagen occurred during adhesion maturation.
Equal numbers of male and female C57BL/6 mice (18-25 g, 8-10 weeks of age, Jackson Laboratories, Bar Harbor, Me.) were used in initial experiments while only male mice were used in the drug escalation studies because they sustained greater accumulations of fibrotic tissue (data not shown). […]

The next data set concerns mouse lung fibroblasts. Briefly: Pro-fibrotic gene expression (qPCR) in bleomycin-treated mouse lung fibroblasts. Type of data set: cell-based. As to conditions: bleomycin alone vs vehicle control. The text has this:
Indeed, FIGS. 1A, 1B, and 1C depict the ability of trametinib to modulate the expression of pro-fibrotic genes in mouse lung fibroblasts. The three graphs represent expression of (type I collagen and FNEDA) and αSMA. Lung fibroblasts isolated form mouse lungs were placed in cell culture and treated either with saline (control) or bleomycin dissolved in saline and 3 different concentrations of trametinib (2.5, 5 and 10 nmolar) dissolved in DMSO. After treatment with the drug, RNA was extracted and quantified by qPCR. mRNAs for type I collagen (Collal), the FNEDA and αSMA are shown. Control values in FIGS. 1 A, B, and C were set to 100%.
Background: Quantitative PCR measures a nucleic acid by following its amplification.

In the case of `CC(=O)Nc1cccc(-n2c(=O)n(C3CC3)c(=O)c3c(Nc4ccc(I)cc4F)n(C)c(=O)c(C)c32)c1` [trametinib], the “Concentration blocking the increases of phosphor-Erk1/2, FNEDA, αSMA and p-SMAD2 (linker)” value in data set [1] (TGF-β-treated cells) is given as not above 2 nM. In addition, in data set [1] (trametinib alone, five days), the “Effect of trametinib alone on mesothelial cells (toxicity, appearance)” value was “no effect and no apparent toxic effects”. For the same compound, the “Wound healing of abdominal muscles and skin at the laparotomy site” value in the data set on C57BL/6 mice was “no impairment”.
With bleomycin, in the data set with mouse lung fibroblasts, the “Increase in expression of Collal mRNA” value is given as “more than 200%”, the “Increase in expression of FNEDA mRNA” value is on record as approximately 150% and the “Increase in expression of αSMA mRNA” value is on record as “more than 200%”.
